The results in this text go back to patent publication US6638935B2, “Heteroary1 derivatives and their use as medicaments” (Zentaris AG, priority 2000, dated 2003).

For orientation: melting point means the temperature, or range, at which the solid turns liquid.

The molecule `COc1cc(OC)cc(N2CCN(C(=O)c3ccncc3)CC2)c1` [Example 13, 1-(3,5-Dimethoxyphenyl)-4-(4-pyridyl-carbonyl)piperazine] returned a melting point of 94 to 96 °C.
